In ChEMBL document CHEMBL1135773, “Purine and pyrimidine (P2) receptors as drug targets” (J Med Chem, 2002):

How the values were obtained:
P2Y purinoceptor 2 = P2Y purinoceptor 2 (Homo sapiens, UniProt P41231); experiment: Evaluated for agonist activity against phospholipase C coupled recombinant human P2Y purinoceptor 2 (P2Y2); format: functional
P2X purinoceptor 2 = target: T1, P2X purinoceptor 2 (Rattus norvegicus, UniProt P49653); experiment: Antagonist activity against recombinant rat receptor P2X purinoceptor 2 (P2X2) at 10 uM, expressed in Xenopus oocytes; format: functional, cell-based, Oocyte
T1 sequence (P49653 whole entry): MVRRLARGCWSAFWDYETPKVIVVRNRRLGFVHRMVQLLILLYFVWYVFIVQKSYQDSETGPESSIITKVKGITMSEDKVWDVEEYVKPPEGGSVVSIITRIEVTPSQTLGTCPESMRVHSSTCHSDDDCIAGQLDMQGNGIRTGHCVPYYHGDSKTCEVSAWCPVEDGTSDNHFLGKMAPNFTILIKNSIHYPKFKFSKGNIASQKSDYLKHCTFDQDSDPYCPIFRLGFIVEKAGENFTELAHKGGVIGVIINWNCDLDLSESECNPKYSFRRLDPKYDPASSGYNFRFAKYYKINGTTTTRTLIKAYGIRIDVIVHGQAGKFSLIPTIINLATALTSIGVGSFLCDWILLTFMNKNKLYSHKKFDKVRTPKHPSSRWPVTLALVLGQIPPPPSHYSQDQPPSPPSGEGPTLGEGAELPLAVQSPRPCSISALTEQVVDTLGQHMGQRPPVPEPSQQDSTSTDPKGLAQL

[1] = target: P2X purinoceptor 7 (Homo sapiens) (UniProt Q99572); experiment: The compound was evaluated for antagonist activity against recombinant human P2X purinoceptor 7 (P2X7); format: functional
P2Y purinoceptor 4 = P2Y purinoceptor 4 (Homo sapiens, UniProt P51582); experiment: The compound was evaluated for antagonist activity against phospholipase C coupled recombinant human P2Y purinoceptor 4 (P2Y4); format: functional
P2X purinoceptor 4 [2] = target: T2, P2X purinoceptor 4 (Rattus norvegicus, UniProt P51577); experiment: Antagonist activity against recombinant rat P2X purinoceptor 4 (P2X4) at 3 uM, expressed in Xenopus oocytes; format: functional, cell-based, Oocyte
T2 sequence (P51577 whole entry): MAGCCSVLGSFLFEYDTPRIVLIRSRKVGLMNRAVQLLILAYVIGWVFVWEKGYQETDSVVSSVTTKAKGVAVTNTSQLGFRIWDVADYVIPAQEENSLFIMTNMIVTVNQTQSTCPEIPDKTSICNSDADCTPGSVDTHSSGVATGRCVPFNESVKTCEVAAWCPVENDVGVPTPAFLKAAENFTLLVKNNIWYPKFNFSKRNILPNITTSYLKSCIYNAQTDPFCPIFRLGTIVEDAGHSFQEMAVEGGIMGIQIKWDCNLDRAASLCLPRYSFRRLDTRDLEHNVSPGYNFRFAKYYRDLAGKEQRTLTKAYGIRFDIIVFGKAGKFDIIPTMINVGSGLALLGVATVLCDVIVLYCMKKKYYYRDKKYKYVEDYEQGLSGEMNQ

P2Y purinoceptor 12 = P2Y purinoceptor 12 (Rattus norvegicus, UniProt Q9EPX4); experiment: Antagonist activity against phospholipase C coupled rat P2Y purinoceptor 12 (P2Y12); format: functional
P2X purinoceptor 1 [3] = target: T3, P2X purinoceptor 1 (Homo sapiens, UniProt P51575); experiment: Antagonist activity against recombinant human P2X purinoceptor 1 (P2X1 ); format: functional
T3 sequence (P51575 whole entry): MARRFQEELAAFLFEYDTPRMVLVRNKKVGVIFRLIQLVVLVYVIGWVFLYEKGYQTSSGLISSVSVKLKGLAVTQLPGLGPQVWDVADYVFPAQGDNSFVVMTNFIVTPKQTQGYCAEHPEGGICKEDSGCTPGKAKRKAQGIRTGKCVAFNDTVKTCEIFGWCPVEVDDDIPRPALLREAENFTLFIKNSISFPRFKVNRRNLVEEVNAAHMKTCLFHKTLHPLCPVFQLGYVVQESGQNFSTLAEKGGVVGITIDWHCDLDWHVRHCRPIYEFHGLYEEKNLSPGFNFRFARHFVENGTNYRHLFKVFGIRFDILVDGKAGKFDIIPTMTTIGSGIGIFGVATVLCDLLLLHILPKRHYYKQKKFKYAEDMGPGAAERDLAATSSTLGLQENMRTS

P2Y purinoceptor 6 = P2Y purinoceptor 6 (Homo sapiens, UniProt Q15077); experiment: The compound was evaluated for agonist activity against phospholipase C coupled recombinant human P2Y purinoceptor 6 (P2Y6); format: functional
P2X purinoceptor 6 = P2X purinoceptor 6 (Rattus norvegicus, UniProt P51579); experiment: Antagonist activity against recombinant rat P2X purinoceptor 6 (P2X6 ); format: functional
P2X purinoceptor 4 [4] = target: T2, P2X purinoceptor 4; experiment: Antagonist activity against recombinant rat P2X purinoceptor 4 (P2X4) at 30 uM, expressed in Xenopus oocytes; format: functional, cell-based, Oocyte
P2X purinoceptor 3 [5] = target: T4, P2X purinoceptor 3 (Homo sapiens, UniProt P56373); experiment: Antagonist activity against recombinant human P2X purinoceptor 3 (P2X3 ); format: functional
T4 sequence (P56373 whole entry): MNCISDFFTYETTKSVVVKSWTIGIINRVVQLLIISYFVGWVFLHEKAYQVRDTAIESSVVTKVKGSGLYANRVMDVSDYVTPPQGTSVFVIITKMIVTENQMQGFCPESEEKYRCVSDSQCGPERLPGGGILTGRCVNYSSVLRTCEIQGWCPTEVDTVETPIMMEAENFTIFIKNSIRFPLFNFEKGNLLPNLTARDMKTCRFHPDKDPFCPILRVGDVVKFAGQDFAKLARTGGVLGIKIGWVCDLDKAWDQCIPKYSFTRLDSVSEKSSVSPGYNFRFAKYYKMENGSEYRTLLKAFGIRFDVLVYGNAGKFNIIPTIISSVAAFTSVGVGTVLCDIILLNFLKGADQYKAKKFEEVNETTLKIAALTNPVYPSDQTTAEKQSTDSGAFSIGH

P2Y purinoceptor 1 = P2Y purinoceptor 1 (Meleagris gallopavo, UniProt P49652); experiment: Evaluated for agonist activity against phospholipase C coupled P2Y purinoceptor 1 (P2Y1) of turkey erythrocytes; format: functional
P2X purinoceptor 7 = target: T5, P2X purinoceptor 7 (Homo sapiens, UniProt Q99572); experiment: Antagonist activity against recombinant human P2X purinoceptor 7 (P2X7); format: functional
T5 sequence (Q99572 whole entry): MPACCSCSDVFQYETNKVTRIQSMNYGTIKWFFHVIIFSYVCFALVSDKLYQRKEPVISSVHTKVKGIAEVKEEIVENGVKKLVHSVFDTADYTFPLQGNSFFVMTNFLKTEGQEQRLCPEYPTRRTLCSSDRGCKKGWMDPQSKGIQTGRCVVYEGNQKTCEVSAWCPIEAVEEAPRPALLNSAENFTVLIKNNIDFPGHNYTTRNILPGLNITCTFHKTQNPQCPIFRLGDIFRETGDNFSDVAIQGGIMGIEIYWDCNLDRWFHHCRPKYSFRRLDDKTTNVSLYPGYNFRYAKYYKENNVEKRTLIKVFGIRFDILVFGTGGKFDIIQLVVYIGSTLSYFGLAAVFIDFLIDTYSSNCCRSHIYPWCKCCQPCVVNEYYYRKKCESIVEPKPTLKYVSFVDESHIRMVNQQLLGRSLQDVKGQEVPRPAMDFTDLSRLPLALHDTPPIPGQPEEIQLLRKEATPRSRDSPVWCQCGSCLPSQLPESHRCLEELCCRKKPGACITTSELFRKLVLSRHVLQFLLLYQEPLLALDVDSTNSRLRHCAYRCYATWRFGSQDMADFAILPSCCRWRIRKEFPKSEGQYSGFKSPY

P2X purinoceptor 5 = target: T6, P2X purinoceptor 5 (Rattus norvegicus, UniProt P51578); experiment: Antagonist activity against recombinant rat P2X purinoceptor 5 (P2X5); format: functional
T6 sequence (P51578 whole entry): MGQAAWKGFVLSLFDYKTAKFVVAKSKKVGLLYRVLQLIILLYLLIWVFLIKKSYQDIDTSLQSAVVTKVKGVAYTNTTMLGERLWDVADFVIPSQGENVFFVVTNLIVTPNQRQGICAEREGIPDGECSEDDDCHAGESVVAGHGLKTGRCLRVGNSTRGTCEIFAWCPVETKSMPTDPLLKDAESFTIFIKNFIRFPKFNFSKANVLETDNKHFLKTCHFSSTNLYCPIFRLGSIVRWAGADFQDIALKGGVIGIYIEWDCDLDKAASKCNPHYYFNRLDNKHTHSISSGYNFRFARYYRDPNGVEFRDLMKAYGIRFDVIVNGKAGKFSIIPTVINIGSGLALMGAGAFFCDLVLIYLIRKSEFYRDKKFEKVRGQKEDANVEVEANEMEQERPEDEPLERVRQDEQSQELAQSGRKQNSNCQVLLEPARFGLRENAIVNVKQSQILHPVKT

P2X purinoceptor 1 [6] = target: T7, P2X purinoceptor 1 (Rattus norvegicus, UniProt P47824); experiment: The compound was evaluated for antagonist activity against recombinant rat P2X purinoceptor 1 (P2X1); format: functional
T7 sequence (P47824 whole entry): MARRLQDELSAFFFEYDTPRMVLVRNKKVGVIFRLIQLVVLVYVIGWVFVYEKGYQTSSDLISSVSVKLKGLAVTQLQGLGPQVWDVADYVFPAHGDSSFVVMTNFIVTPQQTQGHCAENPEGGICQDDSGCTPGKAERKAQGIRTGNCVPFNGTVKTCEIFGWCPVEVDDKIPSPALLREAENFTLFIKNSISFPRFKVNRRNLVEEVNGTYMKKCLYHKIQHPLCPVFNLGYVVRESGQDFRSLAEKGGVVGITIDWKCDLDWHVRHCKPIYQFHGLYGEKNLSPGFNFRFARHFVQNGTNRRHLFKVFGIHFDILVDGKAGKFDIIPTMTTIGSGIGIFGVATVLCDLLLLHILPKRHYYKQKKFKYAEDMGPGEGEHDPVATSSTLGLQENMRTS

P2X purinoceptor 3 [7] = target: T4, P2X purinoceptor 3; experiment: The compound was evaluated for antagonist activity against recombinant human P2X purinoceptor 3 (P2X3 ); format: functional

Sequence of P2Y purinoceptor 12 (Q9EPX4 whole entry): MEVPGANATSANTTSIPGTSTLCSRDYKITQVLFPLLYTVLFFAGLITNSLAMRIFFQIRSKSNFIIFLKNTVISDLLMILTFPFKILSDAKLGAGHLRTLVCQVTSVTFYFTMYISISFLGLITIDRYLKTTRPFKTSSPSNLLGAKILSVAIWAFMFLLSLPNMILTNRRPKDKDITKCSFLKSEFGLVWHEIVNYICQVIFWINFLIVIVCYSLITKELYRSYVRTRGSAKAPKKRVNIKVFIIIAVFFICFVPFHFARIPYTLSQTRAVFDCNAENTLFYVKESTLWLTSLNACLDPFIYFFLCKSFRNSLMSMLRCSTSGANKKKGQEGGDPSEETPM
Sequence of P2Y purinoceptor 1 (P49652 whole entry): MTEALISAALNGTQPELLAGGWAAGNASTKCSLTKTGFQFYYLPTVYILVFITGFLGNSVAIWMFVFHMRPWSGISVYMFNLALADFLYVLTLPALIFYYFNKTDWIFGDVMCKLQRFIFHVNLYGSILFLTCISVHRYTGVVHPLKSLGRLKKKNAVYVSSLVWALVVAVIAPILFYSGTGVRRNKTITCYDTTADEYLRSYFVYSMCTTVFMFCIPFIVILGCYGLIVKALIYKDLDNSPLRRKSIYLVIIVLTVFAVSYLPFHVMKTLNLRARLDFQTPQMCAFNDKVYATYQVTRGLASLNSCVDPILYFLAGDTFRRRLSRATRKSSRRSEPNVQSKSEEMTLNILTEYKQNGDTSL
Sequence of P2Y purinoceptor 6 (Q15077 whole entry): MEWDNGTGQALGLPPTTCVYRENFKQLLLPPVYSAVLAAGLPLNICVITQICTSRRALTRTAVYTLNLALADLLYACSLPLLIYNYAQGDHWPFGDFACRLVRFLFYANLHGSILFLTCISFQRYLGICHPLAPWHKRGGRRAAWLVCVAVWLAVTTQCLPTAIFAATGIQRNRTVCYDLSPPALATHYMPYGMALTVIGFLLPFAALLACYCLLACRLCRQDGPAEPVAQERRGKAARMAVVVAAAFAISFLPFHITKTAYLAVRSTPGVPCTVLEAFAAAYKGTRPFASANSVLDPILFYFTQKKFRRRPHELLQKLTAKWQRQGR
Sequence of P2Y purinoceptor 2 (P41231 whole entry): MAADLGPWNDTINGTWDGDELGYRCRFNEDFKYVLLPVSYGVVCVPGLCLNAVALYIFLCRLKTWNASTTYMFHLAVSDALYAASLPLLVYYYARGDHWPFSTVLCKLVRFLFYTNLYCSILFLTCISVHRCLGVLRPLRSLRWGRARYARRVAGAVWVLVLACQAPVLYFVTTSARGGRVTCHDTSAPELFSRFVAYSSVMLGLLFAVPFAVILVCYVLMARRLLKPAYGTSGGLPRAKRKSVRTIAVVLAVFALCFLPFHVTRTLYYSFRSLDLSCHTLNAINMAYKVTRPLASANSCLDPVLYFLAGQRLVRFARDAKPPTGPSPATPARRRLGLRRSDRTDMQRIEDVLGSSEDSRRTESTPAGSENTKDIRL
Sequence of P2Y purinoceptor 4 (P51582 whole entry): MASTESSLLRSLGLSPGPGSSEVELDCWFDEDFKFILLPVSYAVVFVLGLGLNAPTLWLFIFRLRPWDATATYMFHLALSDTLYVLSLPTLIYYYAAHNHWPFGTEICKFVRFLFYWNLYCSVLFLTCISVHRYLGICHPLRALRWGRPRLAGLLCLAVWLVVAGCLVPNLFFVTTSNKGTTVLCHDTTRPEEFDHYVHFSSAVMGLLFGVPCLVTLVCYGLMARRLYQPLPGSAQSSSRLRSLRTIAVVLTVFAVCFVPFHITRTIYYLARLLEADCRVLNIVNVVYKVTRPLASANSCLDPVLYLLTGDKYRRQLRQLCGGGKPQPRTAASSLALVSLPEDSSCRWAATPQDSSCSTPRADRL
Sequence of P2X purinoceptor 6 (P51579 whole entry): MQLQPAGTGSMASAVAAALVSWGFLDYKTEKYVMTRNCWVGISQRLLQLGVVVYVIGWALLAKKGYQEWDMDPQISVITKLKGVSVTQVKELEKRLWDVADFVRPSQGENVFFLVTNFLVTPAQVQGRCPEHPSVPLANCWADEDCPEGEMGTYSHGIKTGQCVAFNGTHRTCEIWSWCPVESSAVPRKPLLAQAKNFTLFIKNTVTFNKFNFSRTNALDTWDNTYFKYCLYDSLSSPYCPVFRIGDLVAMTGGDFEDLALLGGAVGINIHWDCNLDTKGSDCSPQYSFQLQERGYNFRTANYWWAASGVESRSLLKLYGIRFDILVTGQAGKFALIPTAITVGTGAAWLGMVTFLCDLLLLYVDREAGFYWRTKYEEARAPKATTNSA

SMILES	EC50 (P2Y purinoceptor 2)	EC50 (P2X purinoceptor 2)	IC50 [1]	EC50 (P2Y purinoceptor 4)	EC50 (P2X purinoceptor 4 [2])	EC50 (P2Y purinoceptor 12)	EC50 (P2X purinoceptor 1 [3])	EC50 (P2Y purinoceptor 6)	EC50 (P2X purinoceptor 6)	EC50 (P2X purinoceptor 4 [4])	EC50 (P2X purinoceptor 3 [5])	EC50 (P2Y purinoceptor 1)	EC50 (P2X purinoceptor 7)	EC50 (P2X purinoceptor 5)	EC50 (P2X purinoceptor 1 [6])	IC50 (P2X purinoceptor 3 [7])
CNc1ncnc2c1ncn2[C@H]1C[C@H](OP(=O)(O)O)[C@@H](COP(=O)(O)O)O1	> 100 µM	> 10 µM	> 30 µM	> 100 µM	> 10 µM	> 100 µM	1.15 µM	> 100 µM								
Nc1ncnc2c1ncn2[C@@H]1O[C@H](COP(=O)(O)CP(=O)(O)OP(=O)(O)O)[C@@H](O)[C@H]1O [DIPHOSPHOMETHYLPHOSPHONIC ACID ADENOSYL ESTER]		100 µM				> 100 µM	0.2 µM		> 8 µM	33 µM	0.74 µM	> 100 µM	> 100 µM	> 7 µM		
Cc1nc(/N=N/c2cc(S(=O)(=O)O)ccc2S(=O)(=O)O)c(COP(=O)(O)O)c(C=O)c1O [ISOPPADS]															0.043 µM	0.084 µM
